PubChem BioAssay AID256 (DTP/NCI, 2004)
Values joined by “and” are separate entries in the source; they are usually repeats but may differ in a detail not shown here. Equal entries are not always repeated. Inconclusive results and toxic doses are left out. How the source made its calls: active means survival T/C of 150% or more; inactive means T/C below 125% in these data.

Tested on: CD2F1 mice, L1210 leukemia ip, survival T/C
Assay: NCI In Vivo Anticancer Drug Screen. Data for tumor model L1210 Leukemia (intraperitoneal) in CD2F1 (CDF1) mice
Settings: higher = longer survival
Method in brief: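 Each value reflects a quotient of treated over vehicle control outcomes in mice with a transplanted tumor.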

[1] = endpoint: mean survival time, dose: 25.0 mg/kg/injection, schedule: Q04DX003 (ip), vehicle: saline
[2] = endpoint: mean survival time, dose: 50.0 mg/kg/injection, schedule: Q04DX003 (ip), vehicle: saline
[3] = endpoint: mean survival time, dose: 100.0 mg/kg/injection, schedule: Q01DX001 (ip), vehicle: saline
[4] = endpoint: mean survival time, dose: 100.0 mg/kg/injection, schedule: Q01DX009 (ip), vehicle: saline with Tween-80
[5] = endpoint: mean survival time, dose: 200.0 mg/kg/injection, schedule: Q01DX009 (ip), vehicle: saline with Tween-80
[6] = endpoint: mean survival time, dose: 400.0 mg/kg/injection, schedule: Q01DX009 (ip), vehicle: saline with Tween-80
[7] = endpoint: mean survival time, dose: 25.0 mg/kg/injection, schedule: Q01DX009 (ip), vehicle: saline with Tween-80
[8] = endpoint: mean survival time, dose: 50.0 mg/kg/injection, schedule: Q01DX009 (ip), vehicle: saline with Tween-80
[9] = endpoint: mean survival time, dose: 100.0 mg/kg/injection, schedule: Q04DX003 (ip), vehicle: saline
[10] = endpoint: mean survival time, dose: 100.0 mg/kg/injection, schedule: Q04DX003 (ip), vehicle: saline with Tween-80
[11] = endpoint: mean survival time, dose: 200.0 mg/kg/injection, schedule: Q04DX003 (ip), vehicle: saline with Tween-80
[12] = endpoint: mean survival time, dose: 400.0 mg/kg/injection, schedule: Q04DX003 (ip), vehicle: saline with Tween-80
[13] = endpoint: mean survival time, dose: 12.5 mg/kg/injection, schedule: Q01DX009 (ip), vehicle: saline with Tween-80
[14] = endpoint: mean survival time, dose: 100.0 mg/kg/injection, schedule: Q04DX002 (ip), vehicle: saline with Tween-80
[15] = endpoint: mean survival time, dose: 200.0 mg/kg/injection, schedule: Q04DX003 (ip), vehicle: saline
[16] = endpoint: mean survival time, dose: 200.0 mg/kg/injection, schedule: Q01DX001 (ip), vehicle: saline
[17] = endpoint: mean survival time, dose: 400.0 mg/kg/injection, schedule: Q01DX001 (ip), vehicle: saline
[18] = endpoint: mean survival time, dose: 75.0 mg/kg/injection, schedule: Q01DX001 (ip), vehicle: saline
[19] = endpoint: mean survival time, dose: 150.0 mg/kg/injection, schedule: Q01DX001 (ip), vehicle: saline

Measured: T/C

CC1(C)C(N2CCCCC2)CS1(=O)=O (configuration not stated)
inactive: [1] 98 % of control | [2] 95 % of control | [3] 101 % of control

Cc1sc2ccccc2c2nc3ccccc3c1-2
inactive: [4] 106 % of control | [5] 104 % of control | [6] 107 % of control

CCCCNCCN(CC)CC
inactive: [7] 94 % of control | [1] 94 % of control | [8] 96 % of control | [2] 89 % of control | [4] 93 % of control | [9] 97 % of control

Cc1cc2c(cc1C)C(=O)C(N(C)C)=CC2=O
inactive: [4] 102 % of control | [5] 98 % of control | [6] 91 % of control

c1ccc2c([Si](O[Si](c3cccc4ccccc34)C3CCCCC3)C3CCCCC3)cccc2c1
inactive: [4] 100 % of control | [10] 93 % of control | [5] 91 % of control | [11] 91 % of control | [6] 88 % of control

Cc1csc2[nH]c(=O)[nH]c(=O)c12
inactive: [10] 96 % of control | [11] 94 % of control | [12] 87 % of control

C=C(C)[C@@H]1CCc2c(O)c(O)c(=O)cc(C)c2C1
inactive: endpoint: mean survival time, dose: 3.12 mg/kg/injection, schedule: Q01DX009 (ip), vehicle: saline with Tween-80 89 % of control | endpoint: mean survival time, dose: 6.25 mg/kg/injection, schedule: Q01DX009 (ip), vehicle: saline with Tween-80 96 % of control | [13] 93 % of control | [7] 95 % of control | [8] 106 % of control | [4] 108 % of control

CCOC(=O)CC/C=C\Cc1c(OC)c(C)c2c(c1OC(=O)Nc1ccc(C(C)=O)cc1)C(=O)OC2
inactive: [14] 121 % of control

O=P(OCc1ccccc1)(N(CCCl)CCCl)N1CCN(P(=O)(OCc2ccccc2)N(CCCl)CCCl)CC1 (configuration not stated)
inactive: endpoint: mean survival time, dose: 128.0 mg/kg/injection, schedule: Q01DX Z (ip), vehicle: saline 104 % of control | endpoint: mean survival time, dose: 256.0 mg/kg/injection, schedule: Q01DX Z (ip), vehicle: saline 107 % of control | endpoint: mean survival time, dose: 512.0 mg/kg/injection, schedule: Q01DX Z (ip), vehicle: saline 113 % of control

C=C(Br)CNC(=O)C(=O)OCC
inactive: [10] 105 % of control

O=[N+]([O-])c1cc(Br)ccc1P(=O)(O)O
inactive: [2] 95 % of control | [9] 96 % of control | [15] 93 % of control

O=C1OCCN1S(=O)(=O)c1ccc(Cl)cc1
inactive: [4] 95 % of control | [10] 104 % of control | [5] 93 % of control | [11] 102 % of control | [6] 95 % of control | [12] 98 % of control

CC(=O)C1CCC2C3CC=C4CC(OC(=O)CCC(C)C)CCC4(C)C3CCC12C (configuration not stated)
inactive: [10] 95 % of control | [11] 95 % of control | [12] 92 % of control

CC1(C)CC[N+]1(C)C
inactive: endpoint: mean survival time, dose: 12.5 mg/kg/injection, schedule: Q04DX003 (ip), vehicle: saline 96 % of control | [1] 102 % of control | [2] 97 % of control

CC1CCC2(C(=O)O)CCC3(C)C(=CCC4C5(C)CCC(O)C(C)(C)C5CCC43C)C2C1C (configuration not stated)
inactive: [3] 98 % of control | [16] 98 % of control | [17] 96 % of control

Cc1c2c(cc3c1CCC1(C)C3CCC1C(C)CCC(C)C(C)C)CCCC2 (configuration not stated)
inactive: [10] 94 % of control | [11] 94 % of control | [12] 89 % of control

CC(=O)OCC1OC(n2c(Cl)nc3c(Cl)nc(N)nc32)C(OC(C)=O)C1OC(C)=O (configuration not stated)
inactive: [3] 100 % of control | [16] 100 % of control | [17] 97 % of control

CC(=O)OCCN1CC1
inactive: endpoint: mean survival time, dose: 25.0 mg/kg/injection, schedule: Q01DX009 (ip), vehicle: saline 90 % of control

Cc1ccc(NC(=O)c2ccccc2C(=O)O)c(C)c1
inactive: [4] 109 % of control | [10] 95 % of control | [5] 96 % of control | [11] 109 % of control | [6] 115 % of control | [12] 103 % of control

Cc1c[n+](Cc2ccccc2)ccn1
inactive: [18] 102 % of control | [19] 102 % of control | endpoint: mean survival time, dose: 300.0 mg/kg/injection, schedule: Q01DX001 (ip), vehicle: saline 98 % of control

Cc1ccc([Si](C)(C)c2ccccc2)cc1
inactive: [18] 97 % of control | [19] 101 % of control

CCCCCC/C=C/C(O)CC (configuration not stated)
inactive: [9] 100 % of control | [15] 95 % of control | endpoint: mean survival time, dose: 400.0 mg/kg/injection, schedule: Q04DX003 (ip), vehicle: saline 103 % of control

Cc1cc(CCl)c(C)cc1CCl
inactive: endpoint: mean survival time, dose: 6.25 mg/kg/injection, schedule: Q04DX003 (ip), vehicle: saline with Tween-80 91 % of control | endpoint: mean survival time, dose: 12.5 mg/kg/injection, schedule: Q04DX003 (ip), vehicle: saline with Tween-80 91 % of control | endpoint: mean survival time, dose: 25.0 mg/kg/injection, schedule: Q04DX003 (ip), vehicle: saline with Tween-80 87 % of control | [10] 98 % of control

COc1cc2oc3c(C)c(=O)cc4oc(-c5ccccc5)cc(c2c2c1CCC(c1ccccc1)O2)c43 (configuration not stated)
inactive: endpoint: median survival time, dose: 0.85 mg/kg/injection, schedule: Q01DX005 (ip), vehicle: Klucel (hydroxypropylcellulose) (HPC) 98 % of control | endpoint: median survival time, dose: 1.75 mg/kg/injection, schedule: Q01DX005 (ip), vehicle: Klucel (hydroxypropylcellulose) (HPC) 98 % of control | endpoint: median survival time, dose: 3.5 mg/kg/injection, schedule: Q01DX005 (ip), vehicle: Klucel (hydroxypropylcellulose) (HPC) 98 % of control and 102 % of control | endpoint: median survival time, dose: 7.0 mg/kg/injection, schedule: Q01DX005 (ip), vehicle: Klucel (hydroxypropylcellulose) (HPC) 100 % of control and 102 % of control | endpoint: median survival time, dose: 12.5 mg/kg/injection, schedule: Q01DX005 (ip), vehicle: saline with Tween-80 96 % of control | endpoint: median survival time, dose: 14.0 mg/kg/injection, schedule: Q01DX005 (ip), vehicle: Klucel (hydroxypropylcellulose) (HPC) 94 % of control and 96 % of control | endpoint: median survival time, dose: 25.0 mg/kg/injection, schedule: Q01DX005 (ip), vehicle: saline with Tween-80 95 % of control | endpoint: median survival time, dose: 28.0 mg/kg/injection, schedule: Q01DX005 (ip), vehicle: Klucel (hydroxypropylcellulose) (HPC) 98 % of control | endpoint: median survival time, dose: 50.0 mg/kg/injection, schedule: Q01DX005 (ip), vehicle: saline with Tween-80 96 % of control | endpoint: median survival time, dose: 56.0 mg/kg/injection, schedule: Q01DX005 (ip), vehicle: Klucel (hydroxypropylcellulose) (HPC) 101 % of control | endpoint: median survival time, dose: 100.0 mg/kg/injection, schedule: Q01DX005 (ip), vehicle: saline with Tween-80 91 % of control | endpoint: median survival time, dose: 200.0 mg/kg/injection, schedule: Q01DX005 (ip), vehicle: saline with Tween-80 95 % of control

O=P1(O)Cc2ccccc2-c2ccccc21
inactive: [4] 100 % of control | [5] 110 % of control | [6] 98 % of control

Cc1cc(C)c(N(CC(=O)O)S(=O)(=O)c2ccccc2)c(C)c1N(CC(=O)O)S(=O)(=O)c1ccccc1
inactive: endpoint: mean survival time, dose: 100.0 mg/kg/injection, schedule: Q01DX001 (ip), vehicle: saline with Tween-80 97 % of control | endpoint: mean survival time, dose: 200.0 mg/kg/injection, schedule: Q01DX001 (ip), vehicle: saline with Tween-80 105 % of control | endpoint: mean survival time, dose: 400.0 mg/kg/injection, schedule: Q01DX001 (ip), vehicle: saline with Tween-80 103 % of control

C[N+](C)(C)C.N=C=O.N=C=O.N=C=O.N=C=O.[Co+2]
inactive: endpoint: mean survival time, dose: 10.0 mg/kg/injection, schedule: Q01DX009 (ip), vehicle: saline 98 % of control

Nc1ncnc2nc(CCCCc3ccccc3)[nH]c12
inactive: endpoint: mean survival time, dose: 3.0 mg/kg/injection, schedule: Q01DX009 (ip), vehicle: saline with Tween-80 95 % of control | endpoint: mean survival time, dose: 6.0 mg/kg/injection, schedule: Q01DX009 (ip), vehicle: saline with Tween-80 106 % of control | endpoint: mean survival time, dose: 12.0 mg/kg/injection, schedule: Q01DX009 (ip), vehicle: saline with Tween-80 104 % of control

COc1cc(NC(=O)Nc2cccc(Cl)c2)c(OC)cc1Cl
inactive: [14] 94 % of control | endpoint: mean survival time, dose: 400.0 mg/kg/injection, schedule: Q04DX002 (ip), vehicle: saline with Tween-80 91 % of control

Cc1cccc(C(=O)C=C(C(F)(F)F)C(F)(F)F)c1
inactive: [13] 103 % of control | [7] 113 % of control

CN(N=O)C(=O)NCC1OC(OC2(CNC(=O)N(C)N=O)OC(CNC(=O)N(C)N=O)C(O)C2O)C(O)C(O)C1O (configuration not stated)
inactive: endpoint: mean survival time, dose: 12.5 mg/kg/injection, schedule: Q01DX009 (ip), vehicle: water 102 % of control | endpoint: mean survival time, dose: 25.0 mg/kg/injection, schedule: Q01DX009 (ip), vehicle: water 104 % of control | endpoint: mean survival time, dose: 50.0 mg/kg/injection, schedule: Q01DX009 (ip), vehicle: water 110 % of control | endpoint: mean survival time, dose: 100.0 mg/kg/injection, schedule: Q01DX009 (ip), vehicle: water 117 % of control
